Assay [1] deals with collagenase from Clostridium Histolyticum. Put plainly: Collagenase inhibiting activity (method of Appel, substrate N-carbobenzoxy-pro-gly-gly-L-pro-L-alanine). In kind it is biochemical. As to conditions: collagenase type II (Sigma), collagen synthetic peptide substrate. The procedure: The proteolytic activity of collagenase from Clostridium Histolyticum (Sigma, type II) was dosed according to the method by Appel (Method in enzymatic analysis, H.U. Bergmayer Vol. 2, pp. 1058-1063; 1978) using the collagen synthetic peptide N-carbobenzoxy-pro-gly-gly-L-pro-L-alanine as the substrate.

The subject of assay [2] is arteriosclerotic lesions induced by the diet in the rabbit. Put plainly: Antiarteriosclerotic activity (procedure of C.T. Cahn, diet-induced lesions). Particulars: compound given together with the diet, end of a 12 week treatment. In kind it is in vivo. The procedure: The antiarteriosclerotic activity was tested according to the procedure described by C.T. Cahn, Circul. Research, 43, 115, 1975. The procedure consists in verifying any protecting actions of a drug on arteriosclerotic lesions induced by the diet in the rabbit.

Structures are written as SMILES.

Take `CC(SC(=O)c1cccs1)C(=O)NC1CCSC1=O` (stereo not drawn) [MR-889, 2-(2-Thenoylthio)-N-(2',3',4',5'-tetrahydro-2'-keto-thiophen-3'-yl)propionyl amide, reference compound]: the inhibiting activity entry in assay [1] is “almost no inhibiting activity”.
As to `CC(C)C(SC(=O)c1cccs1)C(=O)NC1CCSC1=O` (stereo not drawn) [MR-2047, N-[(2-thenoylmercapto-3-methyl)-butanoyl]-homocysteine thiolactone], the IC50 in assay [1] (read-out: IC₅₀) was about 2000 nM. In assay [2], the cholesterol levels entry is “significant reduction”, the “collagen levels in the connective tissue of the aorta intima” value is reported as “significant reduction”, the “elastin levels in the connective tissue of the aorta intima” value is “significant reduction” and the triglyceride levels result was “significant reduction”.

The values above are taken from patent EP0557303B1, “N- (2-THENOYLMERCAPTO-3-METHYL)-BUTANOYL]-HOMOCYSTEINE THIOLACTONE, A PROCESS FOR THE PREPARATION THEREOF AND PHARMACEUTICAL COMPOSITIONS CONTAINING IT” (priority 1990, dated 1992).
